These results are taken from ChEMBL document CHEMBL1121467, “Prostaglandins and congeners. 25. Inhibition of gastric acid secretion. Replacement of the carboxylate moiety of a prostaglandin with a hydroxymethylketo functional group” (1980).

Test [1] relates to Canis familiaris. Description: Inhibition of gastric acid secretion (cumulative 75 min) in the dog fistula preparation was measured as total volume, after intragastric administration of 10 ug/kg. The format is functional, Canis lupus familiaris, Stomach.
In test [2] the test system is Canis familiaris. Description: Inhibition of gastric acid secretion (cumulative 75 min) in the dog fistula preparation was measured as acid output, after intragastric administration of 10 ug/kg. The class given is functional, Canis lupus familiaris, Stomach.

For `CCCCC(C)(O)C/C=C/C1[C@H](O)CC(=O)[C@@H]1CCCCCCC(=O)CO` (some centres undefined), the Volume in the test on Canis familiaris [1] worked out at 59 mL. The compound also returned an Acid output in the test with Canis familiaris [2] of 6.9 m equiv [H+] l-1.
Take `CCCCC(C)(O)C/C=C/C1[C@H](O)CC(=O)[C@@H]1C/C=C/CCCC(=O)CO` (some centres undefined): the Volume in the test on Canis familiaris [1] worked out at 76 mL. The Acid output in the test with Canis familiaris [2] is 7.5 m equiv [H+] l-1.
